From ChEMBL document CHEMBL3621157, “Design, synthesis and biological evaluation of novel 1,2,4-triazolo and 1,2,4-triazino[4,3-a]quinoxalines as potential anticancer and antimicrobial agents” (2015)
Converted amounts (≈) assume the structure as drawn.

What was measured:
Assay type in all cases: functional
DU-145 = experiment: Growth inhibition of human DU145 cells incubated for 48 hrs by sulforhodamine B assay; conditions: DU-145, 48 h
MDA-MB-231 = experiment: Growth inhibition of human MDA-MB-231 cells incubated for 48 hrs by sulforhodamine B assay; conditions: MDA-MB-231, 48 h
[1] = Growth inhibition of human Hs 578T cells incubated for 48 hrs by sulforhodamine B assay
T47D = experiment: Growth inhibition of human T47D cells incubated for 48 hrs by sulforhodamine B assay
Staphylococcus aureus [2] = experiment: Antimicrobial activity against Staphylococcus aureus DSM 1104 incubated at 37 degC for 24 hrs by cup diffusion method
Candida albicans [3] = experiment: Antimicrobial activity against Candida albicans DSM 70014 incubated at 37 degC for 48 hrs by cup diffusion method
Staphylococcus aureus [4] = experiment: Antimicrobial activity against Staphylococcus aureus DSM 1104 incubated for 24 hrs followed by transfer of colonies to Muller-Hinton agar plate and measured after 18 hrs by two-fold serial broth dilution method
Bacillus subtilis [5] = experiment: Antimicrobial activity against Bacillus subtilis ATCC 6633 incubated for 24 hrs by two-fold serial broth dilution method; conditions: ATCC 6633, 24 h
Bacillus subtilis [6] = experiment: Antimicrobial activity against Bacillus subtilis ATCC 6633 incubated for 24 hrs followed by transfer of colonies to Muller-Hinton agar plate and measured after 18 hrs by two-fold serial broth dilution method
Pseudomonas aeruginosa = experiment: Antimicrobial activity against Pseudomonas aeruginosa ATCC 10145 incubated for 24 hrs followed by transfer of colonies to Muller-Hinton agar plate and measured after 18 hrs by two-fold serial broth dilution method
Candida albicans [7] = experiment: Antimicrobial activity against Candida albicans DSM 70014 incubated for 48 hrs by two-fold serial broth dilution method; conditions: DSM 70014, 48 h
Candida albicans [8] = experiment: Antimicrobial activity against Candida albicans DSM 70014 incubated for 48 hrs followed by transfer of colonies to Muller-Hinton agar plate and measured after 18 hrs by two-fold serial broth dilution method
[9] = Growth inhibition of human HOP92 cells at 10 uM incubated for 48 hrs by sulforhodamine B assay; conditions: HOP-92, 48 h, read-out: GI
HL-60(TB) [10] = experiment: Growth inhibition of human HL-60(TB) cells at 10 uM incubated for 48 hrs by sulforhodamine B assay; conditions: HL-60, 48 h, read-out: GI
K562 = experiment: Growth inhibition of human K562 cells at 10 uM incubated for 48 hrs by sulforhodamine B assay; conditions: K562, 48 h, read-out: GI
[11] = Growth inhibition of human EKVX cells at 10 uM incubated for 48 hrs by sulforhodamine B assay; conditions: read-out: GI
NCI-H460 = experiment: Growth inhibition of human NCI-H460 cells at 10 uM incubated for 48 hrs by sulforhodamine B assay; conditions: NCI-H460, 48 h, read-out: GI
HCT-15 [12] = experiment: Growth inhibition of human HCT15 cells at 10 uM incubated for 48 hrs by sulforhodamine B assay; conditions: HCT-15, 48 h, read-out: GI
KM12 [13] = experiment: Growth inhibition of human KM12 cells at 10 uM incubated for 48 hrs by sulforhodamine B assay; conditions: KM12, 48 h, read-out: GI
SF-268 = experiment: Growth inhibition of human SF268 cells at 10 uM incubated for 48 hrs by sulforhodamine B assay; conditions: SF-268, 48 h, read-out: GI
A498 = experiment: Growth inhibition of human A498 cells at 10 uM incubated for 48 hrs by sulforhodamine B assay; conditions: A498, 48 h, read-out: GI
PC-3 = experiment: Growth inhibition of human PC3 cells at 10 uM incubated for 48 hrs by sulforhodamine B assay; conditions: PC-3, 48 h, read-out: GI
HL-60(TB) [14] = experiment: Growth inhibition of human HL-60(TB) cells incubated for 48 hrs by sulforhodamine B assay; conditions: HL-60, 48 h
A549 = experiment: Growth inhibition of human A549 cells incubated for 48 hrs by sulforhodamine B assay; conditions: A549, 48 h
HOP-62 = experiment: Growth inhibition of human HOP62 cells incubated for 48 hrs by sulforhodamine B assay; conditions: HOP-62, 48 h
NCI-H226 = experiment: Growth inhibition of human NCI-H226 cells incubated for 48 hrs by sulforhodamine B assay; conditions: NCI-H226, 48 h
NCI-H322M = experiment: Growth inhibition of human NCI-H322M cells incubated for 48 hrs by sulforhodamine B assay
[15] = Growth inhibition of human COLO205 cells incubated for 48 hrs by sulforhodamine B assay; conditions: COLO 205, 48 h
[16] = Growth inhibition of human HCC2998 cells incubated for 48 hrs by sulforhodamine B assay; conditions: HCC 2998, 48 h
HCT-15 [17] = experiment: Growth inhibition of human HCT15 cells incubated for 48 hrs by sulforhodamine B assay; conditions: HCT-15, 48 h
KM12 [18] = experiment: Growth inhibition of human KM12 cells incubated for 48 hrs by sulforhodamine B assay; conditions: KM12, 48 h
SW-620 = experiment: Growth inhibition of human SW620 cells incubated for 48 hrs by sulforhodamine B assay; conditions: SW-620, 48 h
[19] = Growth inhibition of human SF539 cells incubated for 48 hrs by sulforhodamine B assay; conditions: SF-539, 48 h
SNB-19 = experiment: Growth inhibition of human SNB19 cells incubated for 48 hrs by sulforhodamine B assay; conditions: SNB-19, 48 h
SNB-75 = experiment: Growth inhibition of human SNB75 cells incubated for 48 hrs by sulforhodamine B assay; conditions: SNB-75, 48 h
[20] = Growth inhibition of human LOXIMVI cells incubated for 48 hrs by sulforhodamine B assay; conditions: LOX IMVI
Malme-3M = experiment: Growth inhibition of human MALME-3M cells incubated for 48 hrs by sulforhodamine B assay
SK-MEL-2 = experiment: Growth inhibition of human SK-MEL-2 cells incubated for 48 hrs by sulforhodamine B assay; conditions: SK-MEL-2, 48 h
UACC-62 = experiment: Growth inhibition of human UACC62 cells incubated for 48 hrs by sulforhodamine B assay; conditions: UACC-62, 48 h
OVCAR-8 = experiment: Growth inhibition of human OVCAR8 cells incubated for 48 hrs by sulforhodamine B assay; conditions: OVCAR-8, 48 h
[21] = Growth inhibition of human NCI-ADR-RES cells incubated for 48 hrs by sulforhodamine B assay
786-0 = experiment: Growth inhibition of human 786-0 cells incubated for 48 hrs by sulforhodamine B assay; conditions: 786-0, 48 h
ACHN = experiment: Growth inhibition of human ACHN cells incubated for 48 hrs by sulforhodamine B assay
CAKI-1 = experiment: Growth inhibition of human CAKI-1 cells incubated for 48 hrs by sulforhodamine B assay; conditions: CAKI-1, 48 h
[22] = Growth inhibition of human RXF393 cells incubated for 48 hrs by sulforhodamine B assay; conditions: RXF 393, 48 h
UO-31 = experiment: Growth inhibition of human UO31 cells incubated for 48 hrs by sulforhodamine B assay; conditions: UO-31, 48 h

In the case of Clc1ccccc1-c1nnc2c(Cc3ccccc3)nc3ccccc3n12, the GI50 (DU-145) is reported as 44.2 µM, the GI50 (MDA-MB-231) is reported as 6.24 µM and the GI50 [1] is reported as 9.66 µM. For the same compound, the GI50 (T47D) was 6.82 µM, the “inhibition zone (IZ)” value (Staphylococcus aureus [2]) was 12 mm and the “inhibition zone (IZ)” value (Candida albicans [3]) was 16 mm. For the same compound, the MBC (Staphylococcus aureus [4]) was 200 µg/mL (≈ 539 µM), the MIC (Bacillus subtilis [5]) was 25 µg/mL (≈ 67.4 µM) and the MBC (Bacillus subtilis [6]) was 50 µg/mL (≈ 135 µM). It also gave an MBC (Pseudomonas aeruginosa) of 100 µg/mL (≈ 270 µM), an MIC (Candida albicans [7]) of 100 µg/mL (≈ 270 µM) and an MFC (Candida albicans [8]) of 200 µg/mL (≈ 539 µM). For the same compound, the inhibition of growth at 10 µM [9] was 50.1%, the inhibition of growth at 10 µM (HL-60(TB) [10]) was 46.4% and the inhibition of growth at 10 µM (K562) was 78.6%. For the same compound, the inhibition of growth at 10 µM [11] was 48.1%, the inhibition of growth at 10 µM (NCI-H460) was 84.4% and the inhibition of growth at 10 µM (HCT-15 [12]) was 55.4%. For the same compound, the inhibition of growth at 10 µM (KM12 [13]) was 51.1%, the inhibition of growth at 10 µM (SF-268) was 47.5% and the inhibition of growth at 10 µM (A498) was 61.1%. It also gave an inhibition of growth at 10 µM (PC-3) of 60.9%, a GI50 (HL-60(TB) [14]) of 32.5 µM and a GI50 (A549) of 8.77 µM. It also gave a GI50 (HOP-62) of 12.4 µM, a GI50 (NCI-H226) of 9.96 µM and a GI50 (NCI-H322M) of 53.9 µM. It also gave a GI50 [15] of 8.77 µM, a GI50 [16] of 42.8 µM and a GI50 (HCT-15 [17]) of 1.96 µM. It also gave a GI50 (KM12 [18]) of 9.48 µM, a GI50 (SW-620) of 43.4 µM and a GI50 [19] of 24.2 µM. It also gave a GI50 (SNB-19) of 27.8 µM, a GI50 (SNB-75) of 6.12 µM and a GI50 [20] of 3.69 µM. It also gave a GI50 (Malme-3M) of 23.8 µM, a GI50 (SK-MEL-2) of 55.8 µM and a GI50 (UACC-62) of 7.96 µM. It also gave a GI50 (OVCAR-8) of 7.21 µM, a GI50 [21] of 7.04 µM and a GI50 (786-0) of 10.4 µM. It also gave a GI50 (ACHN) of 34.1 µM, a GI50 (CAKI-1) of 9.71 µM and a GI50 [22] of 8.45 µM. It also gave a GI50 (UO-31) of 25 µM.
